Test results as given in patent US20260217765A1, “NOVEL ANTIMICROBIAL PEPTIDE DESIGNED FROM DUCK-DERIVED ANTIMICROBIAL PEPTIDE ANDUSE THEREOF” (INDUSTRY-ACADEMIC COOPERATION FOUNDATION, CHOSUN UNIVERSITY, priority 2023, published 2026).
≈ marks a conversion by molar mass, not a printed value. Peptide text beside a SMILES is read from it.

Tests used:
[1] = system: Acinetobacter baumannii_isolate 13 (antibiotic-resistant); assay type: cell-based, Acinetobacter baumannii; settings: isolate 13 (antibiotic-resistant)
Source text: (§1) To compare the antimicrobial activity of the peptides prepared in <Example 1>, the minimum inhibitory concentration (MIC), […] measured. Here, the minimal inhibitory concentration (MIC) refers to the lowest concentration of a substance that prevents visible bacterial growth.
(§2) Specifically, the bacterial strains listed in Table 2 below were obtained and cultured in media suitable for each strain until the mid-log phase. The cultures were then diluted to a concentration of 2×10^4 cells/100 μL and prepared in microtiter plates (Nunc, USA). Subsequently, serial 2-fold dilutions of the peptides prepared in Example 1 were prepared, and 10 μL of each dilution was added to the wells, and the plates were incubated at 37° C. for 18 hours. Absorbance at 600 nm was measured using a microtiter plate reader (Merck ELISA reader, Germany) to determine the MIC values for each bacterial strain. The parent peptide dCATH was used as a control.

[2] = system: Acinetobacter baumannii_isolate16 (antibiotic-resistant); assay type: cell-based, Acinetobacter baumannii; settings: isolate16 (antibiotic-resistant)
Source text: as §1, §2

[3] = system: Acinetobacter baumannii_isolate 6 (antibiotic-resistant); assay type: cell-based, Acinetobacter baumannii; settings: isolate 6 (antibiotic-resistant)
Source text: as §1, §2

[4] = system: Acinetobacter baumannii_isolate 19 (antibiotic-resistant); assay type: cell-based, Acinetobacter baumannii; settings: isolate 19 (antibiotic-resistant)
Source text: as §1, §2

[5] = system: Acinetobacter baumannii_isolate 5 (antibiotic-resistant); assay type: cell-based, Acinetobacter baumannii; settings: isolate 5 (antibiotic-resistant)
Source text: as §1, §2

[6] = system: Acinetobacter baumannii_isolate 26 (antibiotic-resistant); assay type: cell-based, Acinetobacter baumannii; settings: isolate 26 (antibiotic-resistant)
Source text: as §1, §2

[7] = system: Acinetobacter baumannii_isolate15 (antibiotic-resistant); assay type: cell-based, Acinetobacter baumannii; settings: isolate15 (antibiotic-resistant)
Source text: as §1, §2

[8] = system: Acinetobacter baumannii_isolate 8 (antibiotic-resistant); assay type: cell-based, Acinetobacter baumannii; settings: isolate 8 (antibiotic-resistant)
Source text: as §1, §2

[9] = system: Acinetobacter baumannii_isolate 22 (antibiotic-resistant); assay type: cell-based, Acinetobacter baumannii; settings: isolate 22 (antibiotic-resistant)
Source text: as §1, §2

[10] = system: Acinetobacter baumannii_isolate 9 (antibiotic-resistant); assay type: cell-based, Acinetobacter baumannii; settings: isolate 9 (antibiotic-resistant)
Source text: as §1, §2

[11] = system: Acinetobacter baumannii_isolate 1 (antibiotic-resistant); assay type: cell-based, Acinetobacter baumannii; settings: isolate 1 (antibiotic-resistant)
Source text: as §1, §2

[12] = system: Acinetobacter baumannii_isolate 2 (antibiotic-resistant); assay type: cell-based, Acinetobacter baumannii; settings: isolate 2 (antibiotic-resistant)
Source text: as §1, §2

[13] = system: Acinetobacter baumannii_isolate 23 (antibiotic-resistant); assay type: cell-based, Acinetobacter baumannii; settings: isolate 23 (antibiotic-resistant)
Source text: as §1, §2

[14] = system: Acinetobacter baumannii_isolate 12 (antibiotic-resistant); assay type: cell-based, Acinetobacter baumannii; settings: isolate 12 (antibiotic-resistant)
Source text: as §1, §2

[15] = system: Acinetobacter baumannii_isolate 18 (antibiotic-resistant); assay type: cell-based, Acinetobacter baumannii; settings: isolate 18 (antibiotic-resistant)
Source text: as §1, §2

[16] = system: Acinetobacter baumannii_isolate20 (antibiotic-resistant); assay type: cell-based, Acinetobacter baumannii; settings: isolate20 (antibiotic-resistant)
Source text: as §1, §2

[17] = system: Acinetobacter baumannii_isolate21 (antibiotic-resistant); assay type: cell-based, Acinetobacter baumannii; settings: isolate21 (antibiotic-resistant)
Source text: as §1, §2

[18] = system: Acinetobacter baumannii_isolate 25 (antibiotic-resistant); assay type: cell-based, Acinetobacter baumannii; settings: isolate 25 (antibiotic-resistant)
Source text: as §1, §2

[19] = system: Acinetobacter baumannii_isolate 7 (antibiotic-resistant); assay type: cell-based, Acinetobacter baumannii; settings: isolate 7 (antibiotic-resistant)
Source text: as §1, §2

[20] = system: Acinetobacter baumannii_isolate 4 (antibiotic-resistant); assay type: cell-based, Acinetobacter baumannii; settings: isolate 4 (antibiotic-resistant)
Source text: as §1, §2

[21] = system: Acinetobacter baumannii_isolate 24 (antibiotic-resistant); assay type: cell-based, Acinetobacter baumannii; settings: isolate 24 (antibiotic-resistant)
Source text: as §1, §2

[22] = system: Acinetobacter baumannii_isolate 14 (antibiotic-resistant); assay type: cell-based, Acinetobacter baumannii; settings: isolate 14 (antibiotic-resistant)
Source text: as §1, §2

[23] = system: Acinetobacter baumannii_isolate 3 (antibiotic-resistant); assay type: cell-based, Acinetobacter baumannii; settings: isolate 3 (antibiotic-resistant)
Source text: as §1, §2

[24] = system: Acinetobacter baumannii_isolate 17 (antibiotic-resistant); assay type: cell-based, Acinetobacter baumannii; settings: isolate 17 (antibiotic-resistant)
Source text: as §1, §2

[25] = system: Acinetobacter baumannii_isolate 10 (antibiotic-resistant); assay type: cell-based, Acinetobacter baumannii; settings: isolate 10 (antibiotic-resistant)
Source text: as §1, §2

[26] = system: Acinetobacter baumannii_isolate11 (antibiotic-resistant); assay type: cell-based, Acinetobacter baumannii; settings: isolate11 (antibiotic-resistant)
Source text: as §1, §2

[27] = system: Acinetobacter baumannii KCTC 2508; assay type: cell-based; settings: KCTC 2508, 24 h
Protocol: Specifically, among the bacterial strains listed in Table 2, those known to form biofilms well (Acinetobacter baumannii KCTC 2508, Acinetobacter baumannii isolate 10, and isolate 14) were cultured in the appropriate media to the mid-log phase and diluted to a cell concentration of 5×10^4 cells/100 µL, followed by inoculation into microplates (SPL). Subsequently, the peptides prepared in <Example 1> were serially 10-fold diluted with 10 mM sodium phosphate buffer (pH 7.2), and 10 μL of each dilution was added to each well. The plates were then incubated at 37° C. for 24 hours. After completely removing the supernatant, the plates were fixed with 100% methanol for 15 minutes, stained with crystal violet staining solution for 1 hour, washed three times, and then the stain was solubilized with 95% ethanol. Absorbance was measured at 595 nm using a microplate reader to determine the MBIC values for each bacterial strain.

| Structure (SMILES) | MIC [1] [µM] | MIC [2] [µM] | MIC [3] [µM] | MIC [4] [µM] | MIC [5] [µM] | MIC [6] [µM] | MIC [7] [µM] | MIC [8] [µM] | MIC [9] [µM] | MIC [10] [µM] | MIC [11] [µM] | MIC [12] [µM] | MIC [13] [µM] | MIC [14] [µM] | MIC [15] [µM] | MIC [16] [µM] | MIC [17] [µM] | MIC [18] [µM] | MIC [19] [µM] | MIC [20] [µM] | further results |
| --- | --- | --- | --- | --- | --- | --- | --- | --- | --- | --- | --- | --- | --- | --- | --- | --- | --- | --- | --- | --- | --- |
| CC[C@H](C)[C@H](NC(=O)[C@H](C)NC(=O)[C@H](CCCCN)NC(=O)[C@H](CCCCN)NC(=O)[C@@H](NC(=O)[C@H](CC(C)C)NC(=O)[C@H](CCC(N)=O)NC(=O)[C@H](C)NC(=O)[C@H](C)NC(=O)[C@H](CCCNC(=N)N)NC(=O)[C@@H](N)CCCCN)C(C)C)C(=O)N[C@@H](CCCCN)C(=O)N[C@@H](CCCCN)C(=O)N[C@@H](Cc1ccc(O)cc1)C(=O)N[C@@H](CCCNC(=N)N)C(=O)N[C@@H](C)C(=O)N[C@@H](Cc1c[nH]c2ccccc12)C(=O)N[C@@H](CCCCN)C(=O)N[C@@H](CCCNC(=N)N)C(=O)N[C@@H](CCCNC(=N)N)C(N)=O [dCATH-A6] (H-KRAAQLVKKAIKKYRAWKRR-NH2; N-terminus assumed) | 1 (≈ 2.5 µg/mL) | 1 (≈ 2.5 µg/mL) | 2 (≈ 5 µg/mL) | 1 (≈ 2.5 µg/mL) | 1 (≈ 2.5 µg/mL) | 2 (≈ 5 µg/mL) | 1 (≈ 2.5 µg/mL) | 1 (≈ 2.5 µg/mL) | 1 (≈ 2.5 µg/mL) | 1 (≈ 2.5 µg/mL) | 1 (≈ 2.5 µg/mL) | 2 (≈ 5 µg/mL) | 1 (≈ 2.5 µg/mL) | 1 (≈ 2.5 µg/mL) | 1 (≈ 2.5 µg/mL) | 1 (≈ 2.5 µg/mL) | 1 (≈ 2.5 µg/mL) | 2 (≈ 5 µg/mL) | 1 (≈ 2.5 µg/mL) | 1 (≈ 2.5 µg/mL) | MIC [21]: 1 µM (≈ 2.5 µg/mL); MIC [22]: 2 µM (≈ 5 µg/mL); MIC [23]: 1 µM (≈ 2.5 µg/mL); MIC [24]: 1 µM (≈ 2.5 µg/mL); MIC [25]: 2 µM (≈ 5 µg/mL); MIC [26]: 1 µM (≈ 2.5 µg/mL); MBIC [27]: 2 µM |
| CC[C@H](C)[C@H](NC(=O)[C@H](C)NC(=O)[C@H](CCCCN)NC(=O)[C@H](CCCCN)NC(=O)[C@@H](NC(=O)[C@H](CC(C)C)NC(=O)[C@H](CCC(N)=O)NC(=O)[C@H](C)NC(=O)[C@H](C)NC(=O)[C@H](CCCNC(=N)N)NC(=O)[C@@H](N)CCCCN)C(C)C)C(=O)N[C@@H](CCCCN)C(=O)N[C@@H](CCCCN)C(=O)N[C@@H](Cc1ccc(O)cc1)C(=O)N[C@@H](CCCNC(=N)N)C(=O)N[C@@H](C)C(=O)N[C@@H](Cc1c[nH]c2ccccc12)C(=O)N[C@@H](CCCCN)C(N)=O [dCATH-A7, KRAAQLVKKAIKKYRAWK] (H-KRAAQLVKKAIKKYRAWK-NH2; N-terminus assumed) | 1 (≈ 2.19 µg/mL) | 1 (≈ 2.19 µg/mL) | 1 (≈ 2.19 µg/mL) | 1 (≈ 2.19 µg/mL) | 1 (≈ 2.19 µg/mL) | 1 (≈ 2.19 µg/mL) | 1 (≈ 2.19 µg/mL) | 1 (≈ 2.19 µg/mL) | 1 (≈ 2.19 µg/mL) | 1 (≈ 2.19 µg/mL) | 1 (≈ 2.19 µg/mL) | 1 (≈ 2.19 µg/mL) | 1 (≈ 2.19 µg/mL) | 1 (≈ 2.19 µg/mL) | 1 (≈ 2.19 µg/mL) | 1 (≈ 2.19 µg/mL) | 1 (≈ 2.19 µg/mL) | 1 (≈ 2.19 µg/mL) | 1 (≈ 2.19 µg/mL) | 1 (≈ 2.19 µg/mL) | MIC [21]: 1 µM (≈ 2.19 µg/mL); MIC [22]: 1 µM (≈ 2.19 µg/mL); MIC [23]: 1 µM (≈ 2.19 µg/mL); MIC [24]: 1 µM (≈ 2.19 µg/mL); MIC [25]: 1 µM (≈ 2.19 µg/mL); MIC [26]: 0.5 µM (≈ 1.09 µg/mL); MBIC [27]: 2 µM |
